Here are results for 2 compounds from US5202243A, “Method of hydroxylating 3-[2-(benzoxazol-2-yl)ethyl]-5-ethyl-6-methyl-2-(1H)-pyridinone by incubation with liver slices” (Merck & Co., Inc., priority 1992, dated 1993).

A word on the IC50: it is the concentration at which inhibition is half-maximal.

Data set [1] is described as follows: Incubation with rat liver slices (metabolism). In kind it is in vitro ADME. Conditions: four hours. The text has this:
Ethyl acetate extraction gave a recovery of ~70% of the tritiated material, while ~25% (~9 HPLC peaks) remained in the aqueous residue.

In data set [2] the target is T1, recombinant HIV reverse transcriptase (HIV RTR) (Human immunodeficiency virus type 1 group M subtype B, UniProt P04585).
T1 construct: recombinant HIV reverse transcriptase (HIV RTR)
Briefly: Reverse transcriptase assay (incorporation of tritiated dGMP into acid-precipitable cDNA). In kind it is biochemical. Conditions: [dGTP] and poly r(C).oligo d(G)12-18 at approx. Km; 37° C., 45 minutes; read-out: calculated IC50. As to the method:
The assay measures the incorporation of tritiated deoxyguanosine monophosphate by recombinant HIV reverse transcriptase (HIV RTR) (or other RT) into acid-precipitable cDNA at the Km values of dGTP and poly r(C).oligo d(G)12-18.
Thirty uL of a reaction mixture containing equal volumes of: 500 mM Tris.HCl (pH 8.2), 300 mM MgCl2, 1200 mM KCl, 10 mM DTT, 400 μg/mL poly r(c).oligo d(G) [prepared by dissolving 1.5 mg (25 U) poly r(C).oligo d(G) in 1.5 ml sterile distilled H2 O and diluting to 400 μg/ml], 0.1 μCi/μl [^3 H] dGTP, 160 μM dGTP, were added to 10 μl sterile distilled H2 O, and 2.5 μl of potential inhibitor. An aliquot of 10 μL of 5 nM purified HIV RTR was added to initiate the reaction. The mixture was incubated at 37° C. for 45 minutes.
After incubation is complete, the tubes were cooled in ice for 5 minutes. Ice-cold 13% TCA containing 10 mM NaPPi (200 μl) are added and the mixture incubated on ice for 30 minutes. The precipitated cDNA is removed by filtration using presoaked glass filters [TCA, NaPPi ]. The precipitate is then washed with 1N HCl, 10 mM NaPPi.
The filter discs are then counted in a scintillation counter.
Under these conditions [dGTP] and poly r(C).oligo d(G)12-18 each are approximately equal to the appropriate Km value. Approximately 5-6,000 cpm of [^3 H] GMP are incorporated into acid-precipitable material. The RT reaction is concentration- and time-dependent.

On to `CCc1cc(CCc2nc3ccccc3o2)c(O)nc1C` [compound (II), 3-[2-(Benzoxazol-2-yl)ethyl]-5-ethyl-6-methyl-2-(1H)-pyridinone], for which the metabolised at 4 h in data set [1] (tritiated compound 14.18 μmol, rat liver slices 6.1 g, Williams Medium E, pH 7.4, 37° C.) was about 32%. As for `CCc1cc(CCc2nc3ccccc3o2)c(=O)[nH]c1CO` [compound (I), 3-[2-(benzoxazol-2-yl)ethyl]-5-ethyl-6-hydroxymethyl-2 (1H)-pyridinone], the 50% inhibitory concentration (IC50) in data set [2] was about 0.044 µM. Besides, in data set [1] (ethyl acetate extract of the rat liver slice incubation of the parent compound), the “radioactive HPLC peak, % of the total metabolites” value turned out to be 6%.
